From ChEMBL document CHEMBL3044744, “Antifeedant effects of marine halogenated monoterpenes” (J Agric Food Chem, 2002)
In brackets after ≈: the same amount, converted by molar mass. Activity calls are given as the source filed them. The calls are words filed in the database; no cut-off is given here.

Columns and labels:
[1] = system: Hordeum vulgare; test: Phytotoxicity against Hordeum vulgare (barley) assessed as photosynthetic efficiency in leaf; format: organism-based; conditions: in vivo
[2] = system: Myzus persicae; test: Antifeedant activity against adult of Myzus persicae (green peach aphid) in Hordeum vulgare by choice test; format: functional, organism-based
[3] = system: Leptinotarsa decemlineata; test: Antifeedant activity against adult of Leptinotarsa decemlineata in […] by choice test; format: functional, organism-based
[4] = system: Spodoptera littoralis; test: Antifeedant activity against L6 larvae of Spodoptera littoralis in Solanum tuberosum by choice test; format: functional, organism-based
[5] = system: Rhopalosiphum padi; test: Antifeedant activity against adult of Rhopalosiphum padi in Hordeum vulgare by choice test; format: functional, organism-based
[6] = system: Rhopalosiphum padi; test: Antifeedant activity against adult of Rhopalosiphum padi in barley leaf assessed as salivation time at 2 ug/cm2 after 2 hr by electronic recording; format: functional
[7] = system: Rhopalosiphum padi; test: Antifeedant activity against adult of Rhopalosiphum padi in barley leaf assessed as noningestion time at 2 ug/cm2 after 2 hr by electronic recording; format: functional
[8] = system: Rhopalosiphum padi; test: Antifeedant activity against adult of Rhopalosiphum padi in barley leaf assessed as salivation time at 10 ug/cm2 after 2 hr by electronic recording; format: functional
[9] = system: Rhopalosiphum padi; test: Antifeedant activity against adult of Rhopalosiphum padi in barley leaf assessed as noningestion time at 1 ug/cm2 after 2 hr by electronic recording; format: functional
[10] = system: Rhopalosiphum padi; test: Antifeedant activity against adult of Rhopalosiphum padi in barley leaf assessed as noningestion time at 10 ug/cm2 after 2 hr by electronic recording; format: functional
[11] = system: Rhopalosiphum padi; test: Antifeedant activity against adult of Rhopalosiphum padi in barley leaf assessed as ingestion time at 2 ug/cm2 after 2 hr by electronic recording; format: functional
[12] = system: Rhopalosiphum padi; test: Antifeedant activity against adult of Rhopalosiphum padi in barley leaf assessed as salivation time at 1 ug/cm2 after 2 hr by electronic recording; format: functional
[13] = system: Rhopalosiphum padi; test: Antifeedant activity against adult of Rhopalosiphum padi in barley leaf assessed as ingestion time at 1 ug/cm2 after 2 hr by electronic recording; format: functional
[14] = system: Rhopalosiphum padi; test: Antifeedant activity against adult of Rhopalosiphum padi in barley leaf assessed as ingestion time at 10 ug/cm2 after 2 hr by electronic recording; format: functional
[15] = system: Rhopalosiphum padi; test: Antifeedant activity against adult of Rhopalosiphum padi in Hordeum vulgare assessed as total settling at 50 ug/cm2 by choice test; format: functional
[16] = system: Rhopalosiphum padi; test: Antifeedant activity against adult of Rhopalosiphum padi in Hordeum vulgare assessed as total settling at 10 ug/cm2 by choice test; format: functional
[17] = Cytotoxicity against Spodoptera frugiperda (fall armyworm) Sf9 cells after 48 hr by MTT assay; format: cell-based; conditions: read-out: ED50
[18] = system: Myzus persicae; test: Antifeedant activity against adult of Myzus persicae (green peach aphid) in Hordeum vulgare assessed as total settling at 10 ug/cm2 by choice test; format: functional
[19] = system: Myzus persicae; test: Antifeedant activity against adult of Myzus persicae (green peach aphid) in Hordeum vulgare assessed as total settling at 50 ug/cm2 by choice test; format: functional
[20] = Cytotoxicity against Cricetulus griseus CHO (Chinese hamster ovary) cells after 48 hr by MTT assay; format: cell-based; conditions: read-out: ED50
[21] = system: Leptinotarsa decemlineata; test: Insecticidal activity against adult of Leptinotarsa decemlineata in […] at 2 ug/cm2 by choice test; format: functional, organism-based
[22] = system: Leptinotarsa decemlineata; test: Insecticidal activity against adult of Leptinotarsa decemlineata assessed as mortality at 10 ug/insect treated as hemolymph injection measured up to 3 days; format: functional
[23] = system: Spodoptera littoralis; test: Insecticidal activity against adult of Spodoptera littoralis in Solanum tuberosum at 50 ug/cm2 by choice test; format: functional, organism-based
[24] = system: Rhopalosiphum padi; test: Insecticidal activity against adult of Rhopalosiphum padi in Hordeum vulgare assessed as mortality at 2 to 10 ug/cm2 by choice test; format: functional
[25] = system: Myzus persicae; test: Insecticidal activity against adult of Myzus persicae (green peach aphid) in Hordeum vulgare at 50 ug/cm2 by choice test; format: functional

SMILES	Activity [1]	EC50 [2] [nmol/cm2]	EC50 [3] [nmol/cm2]	Activity [4]	EC50 [5] [nmol/cm2]	other results
CC(=O)O[C@H]1C[C@H](C(C)(Br)CCl)O[C@@]1(C)/C(Cl)=C/Br (some centres undefined)	Non-toxic	50	17.1	inactive	> 100	–
CC(=O)O[C@H]1C[C@@H](C(C)(Br)CCl)O[C@@]1(C)/C(Cl)=C/Br (some centres undefined)	Non-toxic	–	–	inactive	> 100	–
CC1=CCC(C(C)(Cl)CCl)OC1C(Br)Br (centres undefined)	Non-toxic	> 100	8.3	inactive	> 100	–
CC(=O)OC(C/C=C(/C)C(Cl)C(Br)Br)C(C)(Br)CCl (centres undefined)	Non-toxic	–	70	inactive	70	–
CC1=C[C@](C)(/C=C/Cl)C=CC1=O	Non-toxic	200	21.2	inactive	200	–
C=C1C[C@](C)(/C=C/Cl)[C@H](Cl)C[C@H]1Cl	Non-toxic	7.1	12.9	inactive	44.2	–
C[C@]1(/C=C/Cl)C[C@@](C)(Cl)[C@H](Cl)C[C@H]1Cl	Non-toxic	> 100	30.1	inactive	63	–
C[C@@]1(Cl)C[C@@](C)(/C=C/Cl)[C@H](Cl)C[C@H]1Cl	Non-toxic	1	13	inactive	15.9	–
C[C@]1(/C=C/Cl)C[C@](Cl)(CBr)[C@@H](Br)C[C@H]1Cl	Non-toxic	1	39.3	inactive	1.2	Time [6]: 0 min; Time [7]: 60 min; Time [8]: 0 min; Time [9]: 48 min; Time [10]: 60 min; Time [11]: 0 min; Time [12]: 12 min; Time [13]: 0.1 min; Time [14]: 0 min
CC(C)=CCC/C(C)=C/CC/C(C)=C/CO [FARNESOL]	–	67.1	107.3	–	7.9	–
CC(Br)(CCl)[C@H]1C[C@H](O)[C@](C)(/C(Cl)=C/Br)O1 (some centres undefined) [FUROPLOCAMIOID A]	Non-toxic	–	18.9	inactive	> 100	–
CC(Br)(CCl)[C@@H]1C[C@H](O)[C@](C)(/C(Cl)=C/Br)O1 (some centres undefined) [FUROPLOCAMIOID C]	Non-toxic	3.7	19.1	inactive	1.6	Activity [15]: 50%; Activity [16]: 17%; CC50 at 48 h [17]: 0.03 µg/mL (≈ 0.0756 µM); Activity [18]: 17%; Activity [19]: <50%; CC50 at 48 h [20]: 8.09 µg/mL (≈ 20.4 µM)
Cl[C@H]1[C@H](Cl)[C@@H](Cl)[C@@H](Cl)[C@H](Cl)[C@H]1Cl [LINDANE]	–	–	0.1	–	–	Activity [21]: Active; mortality [22]: 100%; CC50 at 48 h [17]: 0.001 µg/mL (≈ 0.00344 µM); Activity [23]: Active; mortality [24]: >50%; mortality at 50 µg/cm2 [25]: 100%; CC50 at 48 h [20]: > 100 µg/mL; EC50 [4]: 16.8 nmol/cm2
C[C@]1(/C=C/Cl)C[C@@](C)(Cl)[C@H](Cl)C[C@@H]1Cl [MERTENSENE]	Non-toxic	150	150	inactive	16.6	Time [6]: 48 min; Time [7]: 15 min; Time [8]: 45 min; Time [9]: 17 min; Time [10]: 15 min; Time [11]: 1 min; Time [12]: 40 min; Time [13]: 3 min; Time [14]: 0 min
CC1=CCC(C(C)(C)Cl)OC1C(Br)Br (centres undefined) [PANTONEURINE AB]	Non-toxic	100	2.4	inactive	> 100	–
C=C(C)[C@@H]1[C@H]2OC(=O)[C@@H]1[C@]1(O)C[C@H]3O[C@]34C(=O)O[C@H]2[C@]14C [PICROTOXININ]	–	> 100	27.5	–	> 100	–
CC(=C/C[C@@H](O)[C@](C)(Br)CCl)/C(Cl)=C/Br [PREFUROPLOCAMIOID]	Non-toxic	25.3	> 100	inactive	38.9	–
Cc1ccc(C(C)C)c(O)c1 [THYMOL]	–	30.9	3.6	–	23.7	–
C[C@]1(/C=C/Cl)C[C@](Cl)(CBr)[C@@H](Cl)C[C@H]1Cl [VIOLACENE]	Non-toxic	5.1	140	inactive	2.5	Activity [15]: 50%; Time [6]: 0.5 min; Time [7]: 59.5 min; mortality [22]: 80%; Time [8]: 0 min; Activity [16]: 17%; CC50 at 48 h [17]: 0.023 µg/mL (≈ 0.0648 µM); Time [9]: 51.8 min; Activity [18]: 17%; Time [10]: 60 min; Time [11]: 0 min; Time [12]: 8 min; Activity [19]: <50%; Time [13]: 0.2 min; CC50 at 48 h [20]: 29.8 µg/mL (≈ 84.1 µM); Time [14]: 0 min
